Results published in paper PMC2943425 (Journal of medicinal chemistry, 2010).

Columns and labels:
[1] = molecular target: Substance P receptors (GPI) (Cavia porcellus, UniProt P30547); assay: GPI substance P antagonist assay in the presence of 1 μM naloxone; parameters: species or system guinea pig; conditions: against Substance P induced contraction, n = 4
neuropathic pain = conditions: cited from earlier work

Sequence of Substance P receptors (GPI) (P30547 whole entry): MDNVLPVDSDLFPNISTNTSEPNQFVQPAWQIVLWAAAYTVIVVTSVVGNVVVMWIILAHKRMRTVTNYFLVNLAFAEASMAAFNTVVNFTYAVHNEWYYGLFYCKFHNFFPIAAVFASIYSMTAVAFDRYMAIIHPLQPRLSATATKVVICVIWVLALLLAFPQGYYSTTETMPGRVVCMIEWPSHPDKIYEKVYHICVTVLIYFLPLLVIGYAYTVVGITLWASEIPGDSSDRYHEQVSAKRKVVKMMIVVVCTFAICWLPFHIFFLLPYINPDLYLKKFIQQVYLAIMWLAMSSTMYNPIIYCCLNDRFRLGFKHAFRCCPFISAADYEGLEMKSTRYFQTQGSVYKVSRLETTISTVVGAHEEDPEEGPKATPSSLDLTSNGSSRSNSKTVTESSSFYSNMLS

| Compound | SP antagonist Ke, GPI [1] [nM] | effect on neuropathic pain in animal models (neuropathic pain) | opioid-induced tolerance in animal models (neuropathic pain) |
| --- | --- | --- | --- |
| CC(=O)N[C@@H](Cc1c[nH]c2ccccc12)C(=O)OCc1cc(C(F)(F)F)cc(C(F)(F)F)c1 [L-732,138] | 250 ± 87 |  |  |
| Tyr^1-D-Ala^2-Gly^3-Phe^4-Met^5-Pro^6-Leu^7-Trp^8-O-[3′,5′-(CF3)2-Bzl] [TY005] |  | powerful attenuation of neuropathic pain | without producing the opioid-induced tolerance |
